In PMC11189555, “Aryl amino acetamides prevent Plasmodium falciparum ring development via targeting the lipid-transfer protein PfSTART1” (Nature Communications, 2024):

Tests used:
[1] = test system: PopE-F10 M-833 resistant clone (PfSTART1 N330K); assay: Growth inhibition assay (72 h, LDH activity); assay type: cell-based, Plasmodium falciparum; design: sample/DMSO: scale not given here
Procedure: (§1) The drug was then removed, and parasites were allowed to recover. Another cycle of drug treatment (3 μM M-833) was then resumed. The resistant lines were cloned out by limiting dilution (diluting the culture into a 96-well plate to achieve an average of ~0.3 parasites per well), prior to growth inhibition assays and genomic DNA (gDNA) extraction (DNeasy Blood and Tissue kit (Qiagen)[18].
(§2) Parasite growth assays with inhibitory compounds were performed as per[11] and are fully described in the Supplementary Information. […]
(§3) Growth inhibition assays. Synchronised ring-stage parasites (0.3-0.6% parasitemia, 2% haematocrit) were grown for 72 h in a serial-dilution of the compound under […]
(§4) and compound 4. Note that M-833 was first purchased from MolPort (MolPort -002-267-916) then made in-house at WEHI: the differences observed in EC50s across experiments are attributed to the different batches of M -833. For some experiments, 0, 0.25 or 2.5 mM of glucosamine (GlcN) was also added. Experiments were set up in technical duplicates or triplicates. Following a freeze -thaw cycle, lactate dehydrogenase (LDH) activity was assessed as an indicator of parasite growt h 5. 30 μL of parasite culture was incubated for 30 min in the dark with 75 μL Malstat mixture (0.1 M Tris pH 9.0, 20 g/L lactic acid, pH 7.5, 0.2% Triton-X100, 0.5 g/L acetylpyridine adenine dinucleotide (APAD, Sigma), 200 μg/mL nitroblue tetrazolium (NBT; Sigma), 1 μg/mL phenozine ethosulfate (PES; Sigma)). Absorbance was then measured at 650 nm, transformed using the formula below, plotted against the logarithm of the concentrations, and a non-linear regression (log(inhibitor) vs. response, variable slope) was calculated using GraphPad Prism to assess the half-inhibitory […]
(§5) Growth inhibition % = (1 − average(sample)− average(uRBC)) ∗ 100 […]
(§6) The DMSO samples were also used to assess growth of parasite in the presence of 0.25 and 2.5 mM GlcN (normalised by DMSO in 0 mM GlcN). […]

[2] = test system: PopD-D7 M-833 resistant clone (PfSTART1 N309K); assay: Growth inhibition assay (72 h, LDH activity); assay type: cell-based, Plasmodium falciparum
Procedure: as §1, §2, §3, §4, §5, §6

## CN(C(=O)C(C)(C)Nc1ccc(Cl)c(S(=O)(=O)N2CCOCC2)c1)c1ccc(F)c(Cl)c1 [compound 4]
[1]; Plasmodium falciparum, 72 h, Supplementary Table 1, PopE-F10 (N330K)
  EC50: 13.8 µM
[1]; PopE-F10 (N330K), Fig 4B
  resistance of the line compared with 3D7: No change in EC50
[1]; PopE-F10, 0.00152416 uM, biological replicate 3
  sample/DMSO: -10.997
[1]; PopE-F10, 0.00304832 uM, biological replicate 1
  sample/DMSO: -14.4828
[1]; PopE-F10, 0.00457247 uM, biological replicate 3
  sample/DMSO: -14.249
[1]; PopE-F10, 0.00914495 uM, biological replicate 1
  sample/DMSO: -25.5172
[1]; PopE-F10, 0.0137174 uM, biological replicate 3
  sample/DMSO: -22.0582
[1]; PopE-F10, 0.0274348 uM, biological replicate 1
  sample/DMSO: -44.0394
[1]; PopE-F10, 0.0411523 uM, biological replicate 3
  sample/DMSO: -25.9307
[1]; PopE-F10, 0.078125 uM, biological replicate 2
  sample/DMSO: -21.3563
[1]; PopE-F10, 0.0823045 uM, biological replicate 1
  sample/DMSO: -49.1626
[1]; PopE-F10, 0.123457 uM, biological replicate 3
  sample/DMSO: -32.7771
[1]; PopE-F10, 0.15625 uM, biological replicate 2
  sample/DMSO: -19.0708
[1]; PopE-F10, 0.246914 uM, biological replicate 1
  sample/DMSO: -58.8177
[1]; PopE-F10, 0.3125 uM, biological replicate 2
  sample/DMSO: -21.7123
[1]; PopE-F10, 0.37037 uM, biological replicate 3
  sample/DMSO: -39.4309
[1]; PopE-F10, 0.625 uM, biological replicate 2
  sample/DMSO: -9.966
[1]; PopE-F10, 0.740741 uM, biological replicate 1
  sample/DMSO: -40.7882
[1]; PopE-F10, 1.11111 uM, biological replicate 3
  sample/DMSO: -43.6671
[1]; PopE-F10, 1.25 uM, biological replicate 2
  sample/DMSO: -1.293
[1]; PopE-F10, 2.22222 uM, biological replicate 1
  sample/DMSO: -40.4926
[1]; PopE-F10, 2.5 uM, biological replicate 2
  sample/DMSO: 7.269
[1]; PopE-F10, 3.33333 uM, biological replicate 3
  sample/DMSO: -37.5053
[1]; PopE-F10, 5 uM, biological replicate 2
  sample/DMSO: 28.3814
[1]; PopE-F10, 6.66667 uM, biological replicate 1
  sample/DMSO: -11.4286
[1]; PopE-F10, 10 uM, biological replicate 2
  sample/DMSO: 46.5155
[1]; PopE-F10, 10 uM, biological replicate 3
  sample/DMSO: 5.884
[1]; PopE-F10, 20 uM, biological replicate 1
  sample/DMSO: 42.9557
[1]; PopE-F10, 20 uM, biological replicate 2
  sample/DMSO: 83.0461
[1]; Supplementary Table 1, EC50 on PopE-F10 vs 3D7
  Fold change compared to 3D7: 1.4 fold
[2]; Plasmodium falciparum, Supplementary Table 1, PopD-D7 (N309K), 72 h, read-out: EC50
  EC50: 15.7 µM
[2]; PopD-D7 (N309K), Fig 4B
  resistance of the line compared with 3D7: No change in EC50
[2]; PopD-D7, 0.00152416 uM, biological replicate 3
  sample/DMSO: -12.3682
[2]; PopD-D7, 0.00304832 uM, biological replicate 1
  sample/DMSO: -15.0464
[2]; PopD-D7, 0.00457247 uM, biological replicate 3
  sample/DMSO: -16.5856
[2]; PopD-D7, 0.00914495 uM, biological replicate 1
  sample/DMSO: -23.9863
[2]; PopD-D7, 0.0137174 uM, biological replicate 3
  sample/DMSO: -19.1403
[2]; PopD-D7, 0.0274348 uM, biological replicate 1
  sample/DMSO: -36.3947
[2]; PopD-D7, 0.0411523 uM, biological replicate 3
  sample/DMSO: -26.0746
[2]; PopD-D7, 0.078125 uM, biological replicate 2
  sample/DMSO: -26.6126
[2]; PopD-D7, 0.0823045 uM, biological replicate 1
  sample/DMSO: -40.9868
[2]; PopD-D7, 0.123457 uM, biological replicate 3
  sample/DMSO: -30.0892
[2]; PopD-D7, 0.15625 uM, biological replicate 2
  sample/DMSO: -24.0527
[2]; PopD-D7, 0.246914 uM, biological replicate 1
  sample/DMSO: -42.7943
[2]; PopD-D7, 0.3125 uM, biological replicate 2
  sample/DMSO: -25.1299
[2]; PopD-D7, 0.37037 uM, biological replicate 3
  sample/DMSO: -34.7932
[2]; PopD-D7, 0.625 uM, biological replicate 2
  sample/DMSO: -6.501
[2]; PopD-D7, 0.740741 uM, biological replicate 1
  sample/DMSO: -38.9839
[2]; PopD-D7, 1.11111 uM, biological replicate 3
  sample/DMSO: -37.8751
[2]; PopD-D7, 1.25 uM, biological replicate 2
  sample/DMSO: 3.536
[2]; PopD-D7, 2.22222 uM, biological replicate 1
  sample/DMSO: -23.9863
[2]; PopD-D7, 2.5 uM, biological replicate 2
  sample/DMSO: 14.2567
[2]; PopD-D7, 3.33333 uM, biological replicate 3
  sample/DMSO: -28.5888
[2]; PopD-D7, 5 uM, biological replicate 2
  sample/DMSO: 26.676
[2]; PopD-D7, 6.66667 uM, biological replicate 1
  sample/DMSO: 9.624
[2]; PopD-D7, 10 uM, biological replicate 2
  sample/DMSO: 49.8923
[2]; PopD-D7, 10 uM, biological replicate 3
  sample/DMSO: 18.8159
[2]; PopD-D7, 20 uM, biological replicate 1
  sample/DMSO: 64.3869
[2]; PopD-D7, 20 uM, biological replicate 2
  sample/DMSO: 82.347
[2]; Supplementary Table 1, EC50 on PopD-D7 vs 3D7
  Fold change compared to 3D7: 1.6 fold
